From US20230295162A1 (EÖTVÖS LORÁND TUDOMÁNYEGYETEM, priority 2020, published 2023)
Where two headings read alike, the source gives them in different places.

What was measured:
[1] = system: PANC-1 (human pancreatic carcinoma) cells; test: Impedance-based viability assay (xCELLigence SP), long treatment; assay type: cell-based; details: 72 h, read-out: cytotoxicity expressed in IC50, PANC-1
Description: (Gibco®/Invitrogen Corporation, New York, NY, USA).
Data obtained from each experiment represent mathematical averages.

[2] = system: Panc1 pancreatic cancer cell line; test: CellTiter-Glo IC50 (Example 19); assay type: cell-based; details: Homo sapiens, PANC-1, 72 h
Procedure, shortened: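 Luminescent ATP-based viability readout (CellTiter-Glo) after compound exposure of cells plated at 1000 per well. IC50 values derive from dose-response curves of viability relative to untreated controls, fitted by non-linear regression with variable slope.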

[3] = system: Capan-1 (pancreas, adenocarcinoma) cells; test: Cell viability assay, CellTiter-Glo (Example 21); assay type: cell-based, human; details: 72 h treatment
Procedure, shortened: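 Viability of Capan-1 pancreatic adenocarcinoma cells was assessed using Promega's CellTiter-Glo® luminescence kit. Cells were plated at 1000 cells/well in white, flat-bottom 96 well plates, treated, then luminescence was recorded on a BioTek Synergy 2 reader. Dose-response curves were fitted in GraphPad Prism 8.4.2 with a four-parameter variable-slope non-linear regression.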

[4] = system: DU 145 (prostate, carcinoma) cells; test: Cell viability assay, CellTiter-Glo (Example 21); assay type: cell-based, human; details: 72 h
Procedure, shortened: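 DU 145 prostate carcinoma cells were plated at 1000 cells/well in white flat-bottom 96 well plates and exposed to compound. Viability was then determined by CellTiter-Glo® luminescence on a BioTek Synergy 2 reader, and dose-response curves were fitted in GraphPad Prism 8.4.2 with a four-parameter variable-slope non-linear regression.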

[5] = system: Detroit 562 (pharynx, carcinoma) cells; test: Cell viability assay, CellTiter-Glo (Example 21); assay type: cell-based, human; details: 72 h treatment
Procedure, shortened: (§1)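 Cells were seeded at optimized densities (Panc-1 750, FaDu 1000, Detroit 562 and MDA-MB-453 1500 cells/well), then treated with compound. Viability was read by CellTiter-Glo luminescence. Dose-response curves were fitted by four-parameter variable-slope non-linear regression.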

[6] = system: EBC-1 (lung, squamous cell carcinoma) cells; test: Cell viability assay, CellTiter-Glo (Example 21); assay type: cell-based, human; details: 72 h treatment
Procedure, shortened: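 The CellTiter-Glo luminescent cell viability assay (Promega) was used to test compound effects on EBC-1 cells. Cells were plated at 1000 cells/well on white flat-bottom 96 well plates, treated, then read for luminescence on a microplate reader. Dose-response curves were fitted by four-parameter variable-slope non-linear regression.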

[7] = system: FaDu (pharynx, squamous cell carcinoma) cells; test: Cell viability assay, CellTiter-Glo (Example 21); assay type: cell-based, human; details: 72 h treatment
Procedure, shortened: as §1

[8] = system: LNCaP (prostate, carcinoma) cells; test: Cell viability assay, CellTiter-Glo (Example 21); assay type: cell-based, human; details: 72 h
Procedure, shortened: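 Flat-bottomed white 96 well plates received 1500 LNCaP cells per well, a density chosen to suit the cells' size and growth rate. Following compound treatment, viability was measured by CellTiter-Glo® luminescence per the manufacturer's protocol, with signal recorded on a BioTek Synergy 2 reader. GraphPad Prism 8.4.2 generated dose-response curves using a four-parameter, variable-slope non-linear regression model.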

[9] = system: MDA-MB-231 (breast, adenocarcinoma) cells; test: Cell viability assay, CellTiter-Glo (Example 21); assay type: cell-based, human; details: 72 h treatment
Procedure, shortened: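 Viability of MDA-MB-231 cells was quantified by luminescence using Promega's CellTiter-Glo® kit per manufacturer instructions. Cells, plated at a size- and growth-optimized density of 1500 cells/well in white flat-bottom 96 well plates, were treated and then read on a BioTek Synergy 2 reader; dose-response curves used four-parameter variable-slope non-linear regression in GraphPad Prism 8.4.2.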

[10] = system: MDA-MB-453 (breast, carcinoma) cells; test: Cell viability assay, CellTiter-Glo (Example 21); assay type: cell-based, human; details: 72 h treatment
Procedure, shortened: as §1

[11] = system: MIA PaCa-2 (pancreas, carcinoma) cells; test: Cell viability assay, CellTiter-Glo (Example 21); assay type: cell-based, human; details: 72 h treatment
Procedure, shortened: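 Cell viability of MIA PaCa-2 cells was assessed by CellTiter-Glo® luminescence (Promega, Madison, WI, USA). Cells were plated at 1000 cells/well, a density chosen for their size and growth rate, in white flat-bottomed 96 well plates. After treatment, the signal was recorded on a BioTek microplate reader, and dose-response curves were fitted in GraphPad Prism 8.4.2 with a four-parameter variable-slope non-linear regression.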

[12] = system: PC-3 (prostate, adenocarcinoma) cells; test: Cell viability assay, CellTiter-Glo (Example 21); assay type: cell-based, human; details: 72 h treatment
Procedure, shortened: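 Cancer cell viability was assessed by luminescence using Promega's CellTiter-Glo® kit. PC-3 cells, plated at a density of 1000 cells/well in white flat-bottom 96 well plates, were exposed to test compounds, after which signals were measured on a microplate reader and dose-response curves fitted by four-parameter variable-slope non-linear regression in GraphPad Prism 8.4.2.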

[13] = system: Panc-1 (pancreas, carcinoma) cells; test: Cell viability assay, CellTiter-Glo (Example 21); assay type: cell-based, human; details: 72 h treatment
Procedure, shortened: as §1

[14] = system: SCC-25 (tongue, squamous cell carcinoma) cells; test: Cell viability assay, CellTiter-Glo (Example 21); assay type: cell-based, human; details: 72 h treatment
Procedure, shortened: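 Cell viability of SCC-25 cells was assessed by CellTiter-Glo luminescence after compound exposure. Cells were plated at 1000 cells/well, a density chosen for their size and growth rate, on white flat-bottom 96 well plates. Signal was recorded on a microplate reader, and dose-response curves were fitted in GraphPad Prism by four-parameter variable-slope non-linear regression.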

Panc-1 human cell line = test: Cytotoxicity on Panc-1, xCELLigence SP, IC50 after 24 h, 48 h, 72 h and 96 h (Example 22)

O=C1C2=C(CCN(Cc3ccccc3)C2)N2CCN=C2N1Cc1ccc(C(F)(F)F)cc1 [I/1, reference compound]
IC50 [1]: 48 nM
IC50 [2]: 74 nM
Capan-1 (pancreas, adenocarcinoma) cell viability (% of control) ([3]; 3.7 nM): 100.3 ± 4.0 % of control
Capan-1 (pancreas, adenocarcinoma) cell viability (% of control) ([3]; 11.1 nM): 99.2 ± 3.8 % of control
Capan-1 (pancreas, adenocarcinoma) cell viability (% of control) ([3]; 100 nM): 88.1 ± 4.2 % of control
Capan-1 (pancreas, adenocarcinoma) cell viability (% of control) ([3]; 300 nM): 36.8 ± 3.4 % of control
DU 145 cell viability ([4]; 3.7 nM): 99.0 ± 4.6 % of control
DU 145 cell viability ([4]; 11.1 nM): 101.3 ± 4.3 % of control
DU 145 cell viability ([4]; 100 nM): 17.5 ± 4.2 % of control
DU 145 cell viability ([4]; 300 nM): 8.1 ± 2.2 % of control
Detroit 562 (pharynx, carcinoma) cell viability (% of control) ([5]; 3.7 nM): 104.1 ± 4.8 % of control
Detroit 562 (pharynx, carcinoma) cell viability (% of control) ([5]; 11.1 nM): 104.0 ± 17.2 % of control
Detroit 562 (pharynx, carcinoma) cell viability (% of control) ([5]; 100 nM): 35.8 ± 14.4 % of control
Detroit 562 (pharynx, carcinoma) cell viability (% of control) ([5]; 300 nM): 32.0 ± 5.0 % of control
EBC-1 (lung, squamous cell carcinoma) cell viability (% of control) ([6]; 3.7 nM): 98.8 ± 5.8 % of control
EBC-1 (lung, squamous cell carcinoma) cell viability (% of control) ([6]; 11.1 nM): 110.1 ± 11.9 % of control
EBC-1 (lung, squamous cell carcinoma) cell viability (% of control) ([6]; 100 nM): 43.4 ± 6.8 % of control
EBC-1 (lung, squamous cell carcinoma) cell viability (% of control) ([6]; 300 nM): 24.2 ± 2.1 % of control
FaDu (pharynx, squamous cell carcinoma) cell viability (% of control) ([7]; 3.7 nM): 102.4 ± 7.4 % of control
FaDu (pharynx, squamous cell carcinoma) cell viability (% of control) ([7]; 11.1 nM): 98.8 ± 4.7 % of control
FaDu (pharynx, squamous cell carcinoma) cell viability (% of control) ([7]; 100 nM): 46.9 ± 5.6 % of control
FaDu (pharynx, squamous cell carcinoma) cell viability (% of control) ([7]; 300 nM): 25.6 ± 5.3 % of control
LNCaP cell viability ([8]; 3.7 nM): 98.6 ± 5.7 % of control
LNCaP cell viability ([8]; 11.1 nM): 101.4 ± 3.3 % of control
LNCaP cell viability ([8]; 100 nM): 28.1 ± 1.7 % of control
LNCaP cell viability ([8]; 300 nM): 15.2 ± 1.7 % of control
MDA-MB-231 (breast, adenocarcinoma) cell viability (% of control) ([9]; 3.7 nM): 101.0 ± 4.4 % of control
MDA-MB-231 (breast, adenocarcinoma) cell viability (% of control) ([9]; 11.1 nM): 97.9 ± 1.1 % of control
MDA-MB-231 (breast, adenocarcinoma) cell viability (% of control) ([9]; 100 nM): 87.9 ± 4.4 % of control
MDA-MB-231 (breast, adenocarcinoma) cell viability (% of control) ([9]; 300 nM): 56.8 ± 2.1 % of control
MDA-MB-453 (breast, carcinoma) cell viability (% of control) ([10]; 3.7 nM): 111.0 ± 7.3 % of control
MDA-MB-453 (breast, carcinoma) cell viability (% of control) ([10]; 11.1 nM): 110.8 ± 2.3 % of control
MDA-MB-453 (breast, carcinoma) cell viability (% of control) ([10]; 100 nM): 37.9 ± 1.3 % of control
MDA-MB-453 (breast, carcinoma) cell viability (% of control) ([10]; 300 nM): 32.5 ± 0.5 % of control
MIA PaCa-2 (pancreas, carcinoma) cell viability (% of control) ([11]; 3.7 nM): 105.7 ± 8.5 % of control
MIA PaCa-2 (pancreas, carcinoma) cell viability (% of control) ([11]; 11.1 nM): 108.5 ± 11.2 % of control
MIA PaCa-2 (pancreas, carcinoma) cell viability (% of control) ([11]; 100 nM): 43.4 ± 13.5 % of control
MIA PaCa-2 (pancreas, carcinoma) cell viability (% of control) ([11]; 300 nM): 17.3 ± 8.8 % of control
PC-3 (prostate, adenocarcinoma) cell viability (% of control) ([12]; 3.7 nM): 106.0 ± 2.8 % of control
PC-3 (prostate, adenocarcinoma) cell viability (% of control) ([12]; 11.1 nM): 102.4 ± 3.7 % of control
PC-3 (prostate, adenocarcinoma) cell viability (% of control) ([12]; 100 nM): 60.4 ± 5.2 % of control
PC-3 (prostate, adenocarcinoma) cell viability (% of control) ([12]; 300 nM): 33.3 ± 3.3 % of control
Panc-1 (pancreas, carcinoma) cell viability (% of control) ([13]; 3.7 nM): 105.8 ± 0.5 % of control
Panc-1 (pancreas, carcinoma) cell viability (% of control) ([13]; 11.1 nM): 104.6 ± 7.2 % of control
Panc-1 (pancreas, carcinoma) cell viability (% of control) ([13]; 100 nM): 81.8 ± 8.1 % of control
Panc-1 (pancreas, carcinoma) cell viability (% of control) ([13]; 300 nM): 56.9 ± 2.4 % of control
SCC-25 (tongue, squamous cell carcinoma) cell viability (% of control) ([14]; 3.7 nM): 108.5 ± 8.6 % of control
SCC-25 (tongue, squamous cell carcinoma) cell viability (% of control) ([14]; 11.1 nM): 105.5 ± 12.7 % of control
SCC-25 (tongue, squamous cell carcinoma) cell viability (% of control) ([14]; 100 nM): 76.7 ± 19.9 % of control
SCC-25 (tongue, squamous cell carcinoma) cell viability (% of control) ([14]; 300 nM): 37.6 ± 4.3 % of control
IC50 (Panc-1 human cell line; PANC-1, 72 h, read-out: IC50 (72 h) [nM]): 274 ± 15.9 nM
IC50 (Panc-1 human cell line; PANC-1, 96 h, read-out: IC50 (96 h) [nM]): 185 ± 44.4 nM
